For data set [1] the following is noted: ECHA (European Chemicals Agency) website; cited from earlier work.
Data set [2] is described as follows: Catalytic activity of comparative products in gelling of a siloxane polymer. The protocol:
The brown solution gave an orange oil which was tested for catalytic activity in gelling of a siloxane polymer.
A 16.13 wt % aqueous solution of Pt(IV) nitrate (2.624 g, 2.17 mmol) was added to deionised water (50 mL) and a mixture of salicylaldehyde (2.45 mL, 2.8 g, 22.8 mmol) and NaHCO3 (0.765 g, 9.12 mmol) in EtOH (15 mL) was then added. The reaction mixture gave off gas and produced an orange precipitate. Stirring was continued at room temperature for 2 hours. The reaction mixture was then filtered to give an orange precipitate and an orange solution. The precipitate was washed with water and diethylether. […] The product was tested for catalytic activity but none was found. […] The major product appeared to be Pt^IV(HCO3)4.

Data set [3] can be described thus: Catalytic activity: time until gelling of siloxane composition after 60 s UV irradiation or in the dark. The conditions noted are these: for Gelling time: 60 s UV. The protocol:
The product of Example 3 was tested for catalytic activity.
5 mg of the product was dissolved in 1 mL dichloromethane to provide a solution (‘Solution A’).
The following ingredients were added to a UV-grade plastic cuvette: • vinyl terminated polydimethyl siloxane 100 cSt DMS V21 (2g); • (45-55% methylhydrosiloxane)dimethylsiloxane copolymer 10-15 cSt HMS-501 (0.108 mL); • Solution A (25 μL).
The contents of the cuvette were stirred briefly with a spatula to ensure thorough mixing and a 10 mm magnetic flea was added, before sealing with parafilm.
The cuvette was placed in a UV-lamp box. The positioning of samples in the box was kept the same throughout testing (154 mm from ground to top of cuvette; 114 mm between end of housing and front of cuvette).
A 300 W ozone-free Xenon lamp was used (visible to 300 nm). A water-cooled filter removes some of the visible spectrum.
The stirrer speed was set to the 12 o'clock position and the lamp was switched on for 60 seconds only. The time taken from the switching on of the lamp to the stirrer no longer being able to complete a turn was noted as a measure of activity.
Results are provided in the Table below. ‘Irradiated’ indicates samples exposed to the 60 s UV radiation. ‘Dark’ indicates samples left in darkness without any irradiation.
(§1) All other aspects of the test were the same as Example 16. The results reflect gelling time after the 60 s UV irradiation.
The testing was done as in Example 16, except that in the initial step the following four solutions were prepared:
Different amounts of the respective solutions, as shown in the Tables below, were added to the cuvette but all other aspects of the test were the same as Example 16.
as §1

Data set [4] can be described thus: Qualitative solubility observations. The format is physicochemical. The protocol:
Stirring was continued at room temperature for 2 hours. […] The precipitate was washed with water and diethylether.
An excess of salicylaldehyde (2 mL, 2.28 g, 18.62 mmol) in EtOH (20 mL) was added and the reaction mixture was heated at 73° C. overnight.
Five different samples were studied: • 1. Vinyl-terminated polydimethylsiloxane 100 cSt • 2.

Data set [5] in a line: Stability in dichloromethane during crystal growth. Type of data set: physicochemical. The following applies: dichloromethane (DCM/hexane crystal growth, one week). From the text: The following different methods were attempted in order to provide suitable crystals for testing. • 1. Growth in acetone/water medium. […] Growth in DCM/hexane. This formed two distinct layers with slow mixing occurring at the interface. […] Growth in chloroform/hexane. This formed two distinct layers with slow mixing occurring at the interface. Slightly larger crystals were formed, but still too small. It took longer for the product to turn brown. • 4. Growth in chloroform: The product was dissolved in chloroform with heating, and immediately filtered before being stored in the freezer. Needle like crystals were formed • 5. Growth in chloroform/hexane in freezer. Needle like crystals were formed

Data set [6] is described as follows: Solubility in various solvents, Pt content by ICP-AES. Type of data set: physicochemical. The following applies: 10 mg in 1 mL, room temperature, 3 h, filtered. The protocol: The solubility of the product of Example 3 was tested in various solvents.
In each case, 10 mg of the complex was stirred in 1 mL of each solvent at room temperature for three hours. The solvent was then filtered. One hundred fold dilutions of the samples into methoxypropanol were then carried out and Pt content was determined by ICP-AES using a Spectro Ciros Vision ICP-OES. Yttrium was employed as an internal standard at a concentration of 5 ppm.

The nature of data set [7]: Thermogravimetric analysis (thermal stability). The format is physicochemical. The conditions noted are these: TGA. From the text:
(which is the boiling point for salicylaldehyde). Above this temperature the ligand is lost, leaving behind the platinum metal.

[8] abbreviates: 25 μL of toluene solution, 1.77 mM.
Setting [9] is: 50 μL of toluene solution, 1.77 mM.
Where [10] appears, read: 75 μL of toluene solution, 1.77 mM.
Where [11] appears, read: 200 μL of toluene solution, 1.77 mM.
[12] abbreviates: 360 μL of toluene solution, 1.77 mM.

The values below come from patent publication US20210187488A1, “A METHOD OF SYNTHESISING A PT(II) COMPLEX; A PT(II) COMPLEX; USE OF SUCH A COMPLEX AS A PHOTOACTIVATABLE CATALYST IN A HYDROSILYLATION REACTION” (JOHNSON MATTHEY PUBLIC LIMITED COMPANY, priority 2017, published 2021).

Regarding `CC1=[C-]CC=C1.[CH3-].[CH3-].[CH3-].[Pt+4]` [(MeCp)PtMe3], the Hazard classification result in data set [1] is “fatal if swallowed, fatal in contact with skin, very toxic to aquatic life, causes serious eye irritation, may cause an allergic skin reaction, causes skin irritation and may cause respiratory irritation”.

For `O=C([O-])O.O=C([O-])O.O=C([O-])O.O=C([O-])O.[Pt+4]` [Comparative Example 6, Pt^IV(HCO3)4], the Catalytic activity result in data set [2] is “none”.

As to `CC(=O)/C=C(/C)O.CC(=O)/C=C(/C)O.[Pt]` [Solution C, Pt(acac)2], the Gelling time in data set [3] (25 μL of DCM solution, 14.4 mM) is 1234 s; in data set [3] (50 μL of DCM solution, 14.4 mM), 719 s; in data set [3] (75 μL of DCM solution, 14.4 mM), 506 s; in data set [3] (100 μL of DCM solution, 14.4 mM) it was 535 s.

For the compound `CC(=O)/C=C(/C)O.CC(=O)/C=C(/C)O.[Pt]` [Solution E, Pt(acac)2], the Gelling time in data set [3] (setting [8]) is 3544 s; in data set [3] (setting [9]), 1350 s; in data set [3] (setting [10]), 938 s; in data set [3] (100 μL of toluene solution, 1.77 mM) it was 793 s; in data set [3] (setting [11]), 551 s; in data set [3] (setting [12]), 486 s.

As for Pt(sal)2 [Example 1], the “Solubility (note on sample)” value in data set [4] (1 mg/mL in acetone) is “saturated solution, prone to some precipitation”; in data set [4] (1 mg/mL in vinyl-terminated polydimethylsiloxane) it was “poor solubility, solution very cloudy and prone to precipitation”.

In the case of Pt(sal)2 [Example 3], the Time until gelling is listed as 13,500 s in data set [3] (dark, no irradiation, 25 μL of 5 mg in 1 mL dichloromethane) and 165 s in data set [3] (irradiated (60 s UV), 25 μL of 5 mg in 1 mL dichloromethane). In addition, the Stability in solvent result in data set [5] is reported as “not completely stable”. Moreover, the Pt concentration was 698 mg/L in data set [6] (Acetone:MeCN (1:1)); 646 mg/L in data set [6] (Acetone); 3260 mg/L in data set [6] (Chloroform); 103 mg/L in data set [6] (EtOH); 43.4 mg/L in data set [6] (IPA); 369 mg/L in data set [6] (MIBK). In addition, the Pt concentration in data set [6] (MeCN:DMSO (80:20)) stood at 1220 mg/L; in data set [6] (MeCN), 588 mg/L; in data set [6] (Toluene), 346 mg/L; in data set [6] (Water:MeCN (1:1)), 167 mg/L; in data set [6] (Water), 42.1 mg/L. Also, in data set [7], the “Thermal stability, stable up to” value was “up to 200 °C”.

In turn, Pt(sal)2 [Example 7] came in with a Time until gelling in data set [3] (after 60 s UV irradiation, 11 mg in 1 mL dichloromethane) of 208 s.

With Pt(sal)2 [Example 9], the Solubility entry in data set [4] (MeOH (washing)) was “only very slightly soluble”.

Regarding Pt(sal)2 [Solution D], the Gelling time in data set [3] (setting [8]) was 1263 s; in data set [3] (setting [9]), 627 s; in data set [3] (setting [10]), 415 s; in data set [3] (setting [11]), 231 s; in data set [3] (setting [12]), 126 s.
